Laboratory results: paper PMC4666032, “KPT-330, a potent and selective exportin-1 (XPO-1) inhibitor, shows antitumor effects modulating the expression of cyclin D1 and survivin in prostate cancer models” (BMC Cancer, 2015)

Columns and labels:
Format in all cases: in vivo
[1] = tested on: PC3 xenografts; assay: PC3 xenograft in male nude mice; conditions: for apoptosis in tumors (TUNEL staining) / cell proliferation in tumors (Ki-67 staining): KPT-251 100 mg/kg or KPT-330 10 mg/kg, sectioned tumors, PC3 xenografts (Fig. 7); for tumor weight: PC3 xenografts, PO Mon/Wed/Fri, vs vehicle
Text: (§1) Male CD1 nude mice (Charles River, Milan, Italy) were maintained under the guidelines established by the University of L’Aquila, Medical School and Science and Technology School Board Regulations. Experiments on animals have been approved by your local IRB in compliance with the Italian government regulation n.116 January 27, 1992 for the use of laboratory animals which is line with ARRIVE guidelines. All mice received subcutaneous flank injections of 1 x 10^6 PC3, DU145 or 22v1 cells. Tumor growth was measured bi-weekly with a Vernier caliper (length x width). Tumor weight was calculated according to the formula: TW (mg) = tumor volume (mm^3) = d2 x D/2, where d and D are the shortest and longest diameters, respectively. The effects of the treatments were examined as previously described. Animals were sacrificed by carbon dioxide inhalation and tumors were subsequently removed surgically. A piece of tumor was frozen in liquid nitrogen for protein analysis and another piece was fixed in paraformaldehyde overnight for immunohistochemical analyses.
Mice were treated by oral gavage with either vehicle control (Pluronic F-68/PVP-K29/32), KPT330 or KPT251. Before tumor injection, animals were randomized into seven treatment groups as follows: Group 1: mice (10 animals) receiving 100 μl vehicle PO; Group 2: mice (10 animals) receiving 100 mg/kg KPT-251 every two days (Monday and Friday)/week PO; Group 3: mice (10 animals) receiving 30 mg/kg KPT-251 every two day/week PO; Group 4: mice (10 animals) receiving 10 mg/kg/day PO; Group 5: mice (10 animals) receiving 30 mg/kg KPT-330 every two days/week PO; Group 6: mice (10 animals) receiving 10 mg/kg KPT-330 every two days/week PO; Group 7: mice (10 animals) receiving 3 mg/kg/day KPT-330 PO. Treatments were started when tumor volumes reached approximately 80 mm^3 (Day 0) and were stopped after 28 days. The following parameters were used to quantify the antitumor effects upon different treatments: (1) tumor volume measured during and at the end of experiments, (2) tumor weight measured at the end of experiment, (3) complete response (CR) defined as the disappearance of the target lesion with respect to baseline, (4) partial response (PR) defined as a reduction of greater than 50 % of tumor volume with respect to baseline, (5) stable disease (SD) defined as a reduction of less than 50 % or an increase of less than 100 % of tumor volume with respect to baseline, (6) tumor progression (TP) defined as an increase of greater than […] of tumor volume with respect to baseline, (7) time to progression (TTP). In vivo, combinational studies were evaluated by CalcuSyn (Biosoft). For the calculation of CI, the values of cell kill for a fixed tumor volume were considered (determined by the log cell kill (LCK)). LCK was determined as LCKZ (TKC)/(3.3KTd), where Td represents the mean control group doubling time required to reach a fixed tumor volume, expressed in days, whereas T and C are the same values as described above.
To determine the effects of XPO-1 inhibition on prostate cancer growth in vivo, we used […] aggressive CRPC, PC3, DU145 and 22rv1, cell lines engrafted in male nude mice. Once tumors were established (80–100 mm3 in size), mice were divided into seven different groups (10 mice/group) and treated with varying doses of KPT-251 (10, 30, 100 mg/kg PO QoDx3) and KPT-330 (5, 10, 20 mg/kg PO QoDx3). Tumors were measured for 35 days. The effects of KPT-251 on tumor growth is shown in Fig. 5 and KPT-330 in Fig. 6. The mean tumor weight was calculated for each treatment group. […]

[2] = tested on: DU145 xenografts; assay: DU145 xenograft in male nude mice; conditions: PO Mon/Wed/Fri, vs vehicle
Text: as §1, with “Animals were sacrificed by carbon dioxide inhalation and tumors were subsequently removed surgically. A piece of tumor was frozen in liquid nitrogen for protein analysis and another piece was fixed in paraformaldehyde overnight for immunohistochemical analyses.” left out
(§2) Mice were treated by oral gavage with either vehicle control (Pluronic F-68/PVP-K29/32), KPT330 or KPT251. […] In vivo, combinational studies were evaluated by CalcuSyn (Biosoft). For the calculation of CI, the values of cell kill for a fixed tumor volume were considered (determined by the log cell kill (LCK)). LCK was determined as LCKZ (TKC)/(3.3KTd), where Td represents the mean control group doubling time required to reach a fixed tumor volume, expressed in days, whereas T and C are the same values as described above. […]

[3] = tested on: 22rv1 xenografts; assay: 22rv1 xenograft in male nude mice; conditions: PO Mon/Wed/Fri, vs vehicle
Text: as §1, with “Animals were sacrificed by carbon dioxide inhalation and tumors were subsequently removed surgically. A piece of tumor was frozen in liquid nitrogen for protein analysis and another piece was fixed in paraformaldehyde overnight for immunohistochemical analyses.” left out
as §2

Row | SMILES | apoptosis in tumors (TUNEL staining) [1] | cell proliferation in tumors (Ki-67 staining) [1] | tumor weight [1] | tumor weight [2] | tumor weight [3]
1 | FC(F)(F)c1cc(-c2ncn(/C=C\c3nnco3)n2)cc(C(F)(F)F)c1 [KPT-251] | increased apoptosis | decreased cell proliferation | reduce tumor weight in a dose-dependent manner | reduce tumor weight in a dose-dependent manner | reduce tumor weight in a dose-dependent manner
2 | O=C(/C=C\n1cnc(-c2cc(C(F)(F)F)cc(C(F)(F)F)c2)n1)NNc1cnccn1 [KPT-330] | increased apoptosis | decreased cell proliferation | reduce tumor weight in a dose-dependent manner | reduce tumor weight in a dose-dependent manner | reduce tumor weight in a dose-dependent manner
